Among the data in patent publication US10660877B2 (BRISTOL-MYERS SQUIBB COMPANY, priority 2016, dated 2020) are IC50 values, retold here.

Where two headings read alike, the source gives them in different places. Bounds are passed on as bounds.

Assay [1] has as its target human TLR7 (Homo sapiens (Human), UniProt Q9NYK1). In words: TLR7 inhibition reporter assay (HEK-Blue cells, SEAP reporter, gardiquimod stimulation). It is filed as cell-based. A general note: A reporter such as luciferase makes a cellular process visible.
In assay [2] the target is human TLR8 (Homo sapiens (Human), UniProt Q9NR97). Nature of the assay: TLR8 inhibition reporter assay (HEK-Blue cells, SEAP reporter, R848 stimulation).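 Note: compounds tested from 0.05 nM to 50 µM, 22 h at 37 °C, SEAP measured with HEK-Blue Detection, inhibition relative to agonist plus DMSO versus a known inhibitor.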
Assay [3] has as its target human TLR9 (Homo sapiens (Human), UniProt Q9NR96). In words: TLR9 inhibition reporter assay (HEK-Blue cells, SEAP reporter, ODN2006 stimulation).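 Note: compounds tested over 0.05 nM to 50 µM, 22 h incubation, inhibition taken as SEAP signal drop from agonist plus DMSO wells toward a known inhibitor control.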
Where [4] appears, read: HEK-Blue cells, gardiquimod 7.5 μM.
[5] abbreviates: read-out: TLR8 IC50, HEK-Blue cells, R848 15.9 μM.
The mark [6] stands for this setting: read-out: TLR9 IC50, HEK-Blue cells, ODN2006 5 nM.
[7] abbreviates: HEK-Blue cells overexpressing human TLR7, gardiquimod 7.5 μM.
Setting [8] is: read-out: TLR8 IC50, HEK-Blue cells overexpressing human TLR8, R848 15.9 μM.
Setting [9] is: read-out: TLR9 IC50, HEK-Blue cells overexpressing human TLR9, ODN2006 5 nM.

Chain of human TLR9 (Q9NR96 26-1032): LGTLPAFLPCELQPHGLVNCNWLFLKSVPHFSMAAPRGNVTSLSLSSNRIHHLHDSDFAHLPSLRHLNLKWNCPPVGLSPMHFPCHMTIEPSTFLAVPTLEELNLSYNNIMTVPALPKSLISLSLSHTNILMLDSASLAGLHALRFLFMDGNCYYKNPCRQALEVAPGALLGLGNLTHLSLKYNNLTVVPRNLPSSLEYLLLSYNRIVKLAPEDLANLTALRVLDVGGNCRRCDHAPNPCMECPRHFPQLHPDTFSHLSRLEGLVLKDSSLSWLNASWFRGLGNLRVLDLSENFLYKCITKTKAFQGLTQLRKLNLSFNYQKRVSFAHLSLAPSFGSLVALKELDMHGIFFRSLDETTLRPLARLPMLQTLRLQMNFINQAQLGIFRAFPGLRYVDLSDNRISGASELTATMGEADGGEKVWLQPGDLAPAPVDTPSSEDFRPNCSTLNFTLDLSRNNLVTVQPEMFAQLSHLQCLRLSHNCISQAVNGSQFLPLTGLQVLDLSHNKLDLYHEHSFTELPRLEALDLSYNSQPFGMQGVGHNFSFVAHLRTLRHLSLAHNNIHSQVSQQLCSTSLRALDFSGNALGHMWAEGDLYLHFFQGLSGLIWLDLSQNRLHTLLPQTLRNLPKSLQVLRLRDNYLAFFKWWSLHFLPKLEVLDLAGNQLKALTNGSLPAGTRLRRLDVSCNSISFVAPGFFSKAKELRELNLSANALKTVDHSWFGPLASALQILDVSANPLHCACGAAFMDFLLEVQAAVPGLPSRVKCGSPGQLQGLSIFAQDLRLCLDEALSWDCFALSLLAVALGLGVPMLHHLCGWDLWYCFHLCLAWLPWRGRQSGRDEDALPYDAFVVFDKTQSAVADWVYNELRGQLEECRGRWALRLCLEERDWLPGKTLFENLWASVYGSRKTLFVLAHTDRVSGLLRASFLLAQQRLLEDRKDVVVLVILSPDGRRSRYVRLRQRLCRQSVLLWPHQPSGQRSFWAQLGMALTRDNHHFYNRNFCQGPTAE
Chain of human TLR8 (Q9NR97 27-1041): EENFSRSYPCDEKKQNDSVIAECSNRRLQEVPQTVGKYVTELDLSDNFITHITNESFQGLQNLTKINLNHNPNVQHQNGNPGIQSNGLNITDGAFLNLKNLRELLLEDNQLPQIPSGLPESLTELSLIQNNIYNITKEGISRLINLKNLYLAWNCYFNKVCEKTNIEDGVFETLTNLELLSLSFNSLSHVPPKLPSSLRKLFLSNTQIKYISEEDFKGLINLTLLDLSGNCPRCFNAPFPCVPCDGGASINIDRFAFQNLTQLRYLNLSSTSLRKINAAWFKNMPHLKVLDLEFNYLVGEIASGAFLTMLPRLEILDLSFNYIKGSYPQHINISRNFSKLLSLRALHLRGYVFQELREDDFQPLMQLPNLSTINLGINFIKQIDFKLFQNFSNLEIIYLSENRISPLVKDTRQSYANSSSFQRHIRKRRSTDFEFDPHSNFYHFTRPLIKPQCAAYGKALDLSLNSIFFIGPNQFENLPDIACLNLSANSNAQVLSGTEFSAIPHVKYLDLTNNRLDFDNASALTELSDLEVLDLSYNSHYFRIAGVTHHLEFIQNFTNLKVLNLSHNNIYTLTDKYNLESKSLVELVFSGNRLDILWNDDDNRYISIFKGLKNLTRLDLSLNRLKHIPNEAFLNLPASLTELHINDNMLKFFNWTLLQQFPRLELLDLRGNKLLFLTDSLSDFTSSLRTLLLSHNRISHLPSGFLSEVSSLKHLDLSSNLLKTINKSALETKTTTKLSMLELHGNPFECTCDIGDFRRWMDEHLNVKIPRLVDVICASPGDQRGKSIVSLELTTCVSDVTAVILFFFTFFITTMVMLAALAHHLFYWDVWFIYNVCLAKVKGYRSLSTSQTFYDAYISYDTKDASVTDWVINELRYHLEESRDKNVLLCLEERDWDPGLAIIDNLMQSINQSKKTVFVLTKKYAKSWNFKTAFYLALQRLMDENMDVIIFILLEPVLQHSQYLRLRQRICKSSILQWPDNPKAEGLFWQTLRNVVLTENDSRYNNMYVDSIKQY
Chain of human TLR7 (Q9NYK1 27-1049): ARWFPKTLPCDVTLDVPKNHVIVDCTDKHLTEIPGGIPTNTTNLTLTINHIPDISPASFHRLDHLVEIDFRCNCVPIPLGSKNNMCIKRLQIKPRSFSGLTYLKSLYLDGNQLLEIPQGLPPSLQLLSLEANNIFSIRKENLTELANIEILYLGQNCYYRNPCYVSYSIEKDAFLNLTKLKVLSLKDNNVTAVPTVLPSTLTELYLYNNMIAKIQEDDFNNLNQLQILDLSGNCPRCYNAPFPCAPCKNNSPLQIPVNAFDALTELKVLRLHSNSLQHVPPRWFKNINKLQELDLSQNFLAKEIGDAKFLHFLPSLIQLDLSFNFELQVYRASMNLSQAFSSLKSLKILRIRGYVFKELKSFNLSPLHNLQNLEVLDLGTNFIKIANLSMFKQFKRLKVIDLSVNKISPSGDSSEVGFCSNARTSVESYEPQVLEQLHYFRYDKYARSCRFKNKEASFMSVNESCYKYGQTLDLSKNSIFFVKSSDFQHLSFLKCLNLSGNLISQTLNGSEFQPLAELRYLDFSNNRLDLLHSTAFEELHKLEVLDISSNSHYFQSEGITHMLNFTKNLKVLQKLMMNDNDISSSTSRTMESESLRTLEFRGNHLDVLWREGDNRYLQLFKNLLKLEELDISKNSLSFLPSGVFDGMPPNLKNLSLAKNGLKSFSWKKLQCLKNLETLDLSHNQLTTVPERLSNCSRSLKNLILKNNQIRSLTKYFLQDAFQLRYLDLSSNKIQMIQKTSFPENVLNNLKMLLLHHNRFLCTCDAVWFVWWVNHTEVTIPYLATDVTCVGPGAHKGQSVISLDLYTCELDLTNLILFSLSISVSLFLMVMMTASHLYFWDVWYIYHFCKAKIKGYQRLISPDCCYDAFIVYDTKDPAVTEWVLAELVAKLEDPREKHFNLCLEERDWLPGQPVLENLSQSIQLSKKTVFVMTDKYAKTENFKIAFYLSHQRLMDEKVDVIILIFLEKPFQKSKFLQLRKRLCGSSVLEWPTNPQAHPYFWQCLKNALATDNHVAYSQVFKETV

For `CCc1c(-c2ccnc(C)c2)[nH]c2ccc(C3CCN(CC(=O)O)CC3)cc12` [Example 876, 2-(4-(3-ethyl-2-(2-methylpyridin-4-yl)-1H-indol-5-yl)piperidin-1-yl)acetic acid], the IC50 (usually the concentration needed to halve the response being measured) in assay [1] (setting [4]) was 0.958 µM; in assay [2] (setting [5]), 1.94 µM; in assay [3] (setting [6]), 46.7 µM.

`Cc1cc(-c2[nH]c3ccc(C4CCN(CCC#N)CC4)cc3c2C(C)C)c(C)cn1` [Example 665, 3-(4-(2-(2,5-dimethylpyridin-4-yl)-3-isopropyl-1H-indol-5-yl)piperidin-1-yl)propanenitrile]: the IC50 in assay [1] (setting [7]) worked out at 0.0136 µM; in assay [2] (setting [8]) it was 0.0022 µM; in assay [3] (setting [9]), 6.21 µM.

As for `COc1ncc(CN(C)CC(=O)N2CCC(c3ccc4[nH]c(-c5cc(C)nc(C)c5)c(C(C)C)c4c3)CC2)cn1` [Example 418, 1-(4-(2-(2,6-dimethylpyridin-4-yl)-3-isopropyl-1H-indol-5-yl)piperidin-1-yl)-2-(((2-methoxypyrimidin-5-yl)methyl)(methyl)amino)ethan-1-one], the IC50 in assay [1] (setting [7]) was 0.003 µM; in assay [2] (setting [8]), 0.0306 µM; in assay [3] (setting [9]), 2.05 µM.

Turning to `CC(C)c1c(-c2ccnc(CO)c2)[nH]c2ccc(C3CCNCC3)cc12` [Example 22, (4-(3-isopropyl-5-(piperidin-4-yl)-1H-indol-2-yl)pyridin-2-yl)methanol], the IC50 was 0.0806 µM in assay [1] (setting [7]), 0.075 µM in assay [2] (setting [8]) and 1.5 µM in assay [3] (setting [9]).

As for `Cc1cc(-c2[nH]c3ccc(C4CCN(C(=O)CNC56CC7CC(CC(C7)C5)C6)CC4)cc3c2C(C)C)cc(C)n1` [Example 342, 2-(adamantan-1-ylamino)-1-(4-(2-(2,6-dimethylpyridin-4-yl)-3-isopropyl-1H-indol-5-yl)piperidin-1-yl)ethan-1-one], the IC50 in assay [1] (setting [7]) amounted to 0.0262 µM; in assay [2] (setting [8]) it was 0.0671 µM; in assay [3] (setting [9]), 0.656 µM.

Take `CC(C)c1c(-c2ccncc2NC(=O)C(C)(C)C)[nH]c2ccc(C3CCNCC3)cc12` [Example 37, N-(4-(3-isopropyl-5-(piperidin-4-yl)-1H-indol-2-yl)pyridin-3-yl) pivalamide]: the IC50 in assay [1] (setting [7]) is 42.7 µM; in assay [2] (setting [8]), 0.635 µM; in assay [3] (setting [9]) it was 6.1 µM.

As for `Cc1cc(-c2[nH]c3ccc(C4CCN(S(=O)(=O)CC(C)C)CC4)cc3c2C(C)C)ccn1` [Example 548, 5-(1-(isobutylsulfonyl)piperidin-4-yl)-3-isopropyl-2-(2-methylpyridin-4-yl)-1H-indole], the IC50 was 0.336 µM in assay [1] (setting [7]), 0.7 µM in assay [2] (setting [8]) and above 50 µM in assay [3] (setting [9]).

For `Cc1cc(-c2[nH]c3ccc(C4CCN(CC(C)O)CC4)cc3c2C(C)C)cc(C)n1` (stereo not drawn) [Example 331, 1-(4-(2-(2,6-dimethylpyridin-4-yl)-3-isopropyl-1H-indol-5-yl)piperidin-1-yl)propan-2-ol], the IC50 in assay [1] (setting [7]) was found to be 0.0024 µM; in assay [2] (setting [8]), 0.0035 µM; in assay [3] (setting [9]), 0.566 µM.

Turning to `Cc1cc(-c2[nH]c3ccc(C4CCN(CC5(C)COC5)CC4)cc3c2C(C)C)c(C)cn1` [Example 872, 2-(2,5-dimethylpyridin-4-yl)-3-isopropyl-5-(1-((3-methyloxetan-3-yl)methyl)piperidin-4-yl)-1H-indole], the IC50 is 0.0206 µM in assay [1] (setting [4]), 0.0028 µM in assay [2] (setting [5]) and 2.32 µM in assay [3] (setting [6]).

For `Cc1cc(-c2[nH]c3ccc(C4CCN(C(=O)CCN5CCOCC5)CC4)cc3c2C(C)C)cc(C)n1` [Example 128, 1-(4-(2-(2,6-dimethylpyridin-4-yl)-3-isopropyl-1H-indol-5-yl)piperidin-1-yl)-3-morpholinopropan-1-one], the IC50 in assay [1] (setting [7]) was 0.0039 µM; in assay [2] (setting [8]) it was 0.0155 µM; in assay [3] (setting [9]), 0.73 µM.

Take `Cc1cc(-c2[nH]c3ccc(C4CCN(C(=O)CN(C)C5CC5)CC4)cc3c2C(C)C)cc(C)n1` [Example 357, 2-(cyclopropyl(methyl)amino)-1-(4-(2-(2,6-dimethylpyridin-4-yl)-3-isopropyl-1H-indol-5-yl)piperidin-1-yl)ethan-1-one]: the IC50 was found to be 0.0139 µM in assay [1] (setting [7]), 0.104 µM in assay [2] (setting [8]) and 2.35 µM in assay [3] (setting [9]).
